Data reported in the NIST ThermoML archive (doi:10.1021/je901020a).
± gives the expanded uncertainty stated by the source.

Key:
[1] = xn = mol fraction of the nth substance listed; conditions: 101 kPa, Liquid; for speed of sound: Pulse-echo method
[2] = refractive index (Na D-line) (dimensionless); xn = mol fraction of the nth substance listed; conditions: 101 kPa, Liquid, Standard Abbe refractometry

Cc1ccc(C)cc1 [1,4-dimethylbenzene] + C1CCCCC1
Conditions | mass density, [1] [kg/m3] | refractive index, [2] | speed of sound, [1] [m/s]
298.15 K, x2 = 0 | 856.6 ± 0.5 | 1.49312 ± 0.00069 | 1310 ± 2
298.15 K, x2 = 0.0459 | 852.9 ± 0.5 | 1.49003 ± 0.0007 | 1306 ± 2
298.15 K, x2 = 0.0952 | 848.6 ± 0.5 | 1.4866 ± 0.0007 | 1301 ± 2
298.15 K, x2 = 0.1948 | 840.1 ± 0.5 | 1.47959 ± 0.0007 | 1292 ± 2
298.15 K, x2 = 0.2874 | 832.3 ± 0.5 | 1.47324 ± 0.00069 | 1284 ± 2
298.15 K, x2 = 0.3929 | 823 ± 0.5 | 1.4656 ± 0.00069 | 1275 ± 2
298.15 K, x2 = 0.4964 | 814.1 ± 0.5 | 1.45843 ± 0.00069 | 1269 ± 2
298.15 K, x2 = 0.5938 | 805.7 ± 0.5 | 1.45142 ± 0.00068 | 1263 ± 2
298.15 K, x2 = 0.6949 | 797.2 ± 0.5 | 1.44417 ± 0.00068 | 1258 ± 2
298.15 K, x2 = 0.7906 | 789.5 ± 0.5 | 1.43762 ± 0.00068 | 1254 ± 2
298.15 K, x2 = 0.8927 | 781.5 ± 0.5 | 1.43057 ± 0.00068 | 1253 ± 2
298.15 K, x2 = 0.9493 | 777.5 ± 0.5 | 1.42692 ± 0.00068 | 1253 ± 2
313.15 K, x2 = 0 | 843.5 ± 0.5 | 1.48444 ± 0.00069 | 1248 ± 2
313.15 K, x2 = 0.0494 | 839.4 ± 0.5 | 1.48145 ± 0.00068 | 1243 ± 2
313.15 K, x2 = 0.1056 | 834.5 ± 0.5 | 1.47781 ± 0.00066 | 1238 ± 2
313.15 K, x2 = 0.2078 | 825.8 ± 0.5 | 1.47072 ± 0.00064 | 1228 ± 2
313.15 K, x2 = 0.3149 | 816.5 ± 0.5 | 1.46341 ± 0.00063 | 1218 ± 2
313.15 K, x2 = 0.4156 | 807.5 ± 0.5 | 1.45628 ± 0.0006 | 1209 ± 2
313.15 K, x2 = 0.5115 | 799.2 ± 0.5 | 1.44953 ± 0.0006 | 1202 ± 2
313.15 K, x2 = 0.6083 | 790.9 ± 0.5 | 1.44272 ± 0.00062 | 1195 ± 2
313.15 K, x2 = 0.7079 | 782.5 ± 0.5 | 1.43584 ± 0.00067 | 1189 ± 2
313.15 K, x2 = 0.8167 | 773.7 ± 0.5 | 1.42845 ± 0.00061 | 1184 ± 2
313.15 K, x2 = 0.9109 | 766.2 ± 0.5 | 1.42167 ± 0.00049 | 1182 ± 2
313.15 K, x2 = 0.9601 | 762.5 ± 0.5 | 1.41809 ± 0.00045 | 1181 ± 2

C1CCCCC1 [cyclohexane] + Cc1ccccc1C
x1 = 1
Conditions | mass density, [1] [kg/m3] | refractive index, [2] | speed of sound, [1] [m/s]
298.15 K | 773.9 ± 0.5 | 1.4236 ± 0.00064 | 1255 ± 2
313.15 K | 759.6 ± 0.5 | 1.41516 ± 0.00064 | 1182 ± 2

Cc1cc(C)cc(C)c1 [1,3,5-trimethylbenzene] + C1CCCCC1
Conditions | mass density, [1] [kg/m3] | refractive index, [2] | speed of sound, [1] [m/s]
298.15 K, x2 = 0 | 861.1 ± 0.5 | 1.49693 ± 0.00063 | 1336 ± 2
298.15 K, x2 = 0.0459 | 857.3 ± 0.5 | 1.4939 ± 0.0007 | 1331 ± 2
298.15 K, x2 = 0.0956 | 853.1 ± 0.5 | 1.49061 ± 0.0007 | 1326 ± 2
298.15 K, x2 = 0.193 | 844.8 ± 0.5 | 1.48396 ± 0.0007 | 1315 ± 2
298.15 K, x2 = 0.2937 | 835.9 ± 0.5 | 1.47698 ± 0.00069 | 1304 ± 2
298.15 K, x2 = 0.3878 | 827.5 ± 0.5 | 1.46995 ± 0.00069 | 1294 ± 2
298.15 K, x2 = 0.4953 | 817.9 ± 0.5 | 1.46201 ± 0.00069 | 1283 ± 2
298.15 K, x2 = 0.598 | 808.6 ± 0.5 | 1.45441 ± 0.00068 | 1274 ± 2
298.15 K, x2 = 0.6944 | 799.7 ± 0.5 | 1.44675 ± 0.00068 | 1265 ± 2
298.15 K, x2 = 0.796 | 790.3 ± 0.5 | 1.43896 ± 0.00068 | 1258 ± 2
298.15 K, x2 = 0.8942 | 781.5 ± 0.5 | 1.43119 ± 0.00068 | 1252 ± 2
298.15 K, x2 = 0.9515 | 776.9 ± 0.5 | 1.42697 ± 0.00068 | 1250 ± 2
313.15 K, x2 = 0 | 848.8 ± 0.5 | 1.48923 ± 0.00063 | 1277 ± 2
313.15 K, x2 = 0.0488 | 844.8 ± 0.5 | 1.48628 ± 0.0007 | 1271 ± 2
313.15 K, x2 = 0.102 | 840.2 ± 0.5 | 1.48264 ± 0.0007 | 1265 ± 2
313.15 K, x2 = 0.2008 | 831.7 ± 0.5 | 1.47604 ± 0.0007 | 1253 ± 2
313.15 K, x2 = 0.3053 | 822.6 ± 0.5 | 1.4688 ± 0.00069 | 1241 ± 2
313.15 K, x2 = 0.416 | 812.4 ± 0.5 | 1.46071 ± 0.00069 | 1229 ± 2
313.15 K, x2 = 0.5105 | 803.5 ± 0.5 | 1.4534 ± 0.00068 | 1219 ± 2
313.15 K, x2 = 0.6084 | 794.3 ± 0.5 | 1.44576 ± 0.00068 | 1209 ± 2
313.15 K, x2 = 0.7068 | 785.2 ± 0.5 | 1.43825 ± 0.00068 | 1200 ± 2
313.15 K, x2 = 0.8092 | 775.9 ± 0.5 | 1.43012 ± 0.00068 | 1191 ± 2
313.15 K, x2 = 0.911 | 766.9 ± 0.5 | 1.4222 ± 0.00068 | 1185 ± 2
313.15 K, x2 = 0.9612 | 762.7 ± 0.5 | 1.41833 ± 0.00068 | 1183 ± 2

C1CCCCCCC1 [cyclooctane] + Cc1ccc(C)cc1
Conditions | mass density, [1] [kg/m3] | refractive index, [2] | speed of sound, [1] [m/s]
298.15 K, x1 = 0.0534 | 854.3 ± 0.5 | 1.49055 ± 0.0007 | 1312 ± 2
298.15 K, x1 = 0.1004 | 852.6 ± 0.5 | 1.4883 ± 0.0007 | 1314 ± 2
298.15 K, x1 = 0.2025 | 848.8 ± 0.5 | 1.48358 ± 0.0007 | 1319 ± 2
298.15 K, x1 = 0.303 | 845.4 ± 0.5 | 1.4792 ± 0.0007 | 1325 ± 2
298.15 K, x1 = 0.402 | 842.4 ± 0.5 | 1.47506 ± 0.0007 | 1332 ± 2
298.15 K, x1 = 0.4986 | 839.6 ± 0.5 | 1.47129 ± 0.0007 | 1339 ± 2
298.15 K, x1 = 0.599 | 837.1 ± 0.5 | 1.46764 ± 0.0007 | 1348 ± 2
298.15 K, x1 = 0.6981 | 835 ± 0.5 | 1.46424 ± 0.0007 | 1357 ± 2
298.15 K, x1 = 0.7968 | 833.3 ± 0.5 | 1.46119 ± 0.0007 | 1367 ± 2
298.15 K, x1 = 0.8926 | 832 ± 0.5 | 1.4585 ± 0.0007 | 1377 ± 2
298.15 K, x1 = 0.9504 | 831.5 ± 0.5 | 1.45707 ± 0.0007 | 1384 ± 2
298.15 K, x1 = 1 | 831.5 ± 0.5 | 1.45598 ± 0.00061 | 1391 ± 2
313.15 K, x1 = 0.0485 | 841.6 ± 0.5 | 1.48247 ± 0.0007 | 1250 ± 2
313.15 K, x1 = 0.0874 | 840.2 ± 0.5 | 1.48077 ± 0.0007 | 1252 ± 2
313.15 K, x1 = 0.1848 | 836.7 ± 0.5 | 1.47651 ± 0.0007 | 1256 ± 2
313.15 K, x1 = 0.2948 | 833.2 ± 0.5 | 1.472 ± 0.0007 | 1262 ± 2
313.15 K, x1 = 0.3853 | 830.4 ± 0.5 | 1.46825 ± 0.0007 | 1268 ± 2
313.15 K, x1 = 0.4829 | 827.7 ± 0.5 | 1.46454 ± 0.0007 | 1274 ± 2
313.15 K, x1 = 0.5809 | 825.3 ± 0.5 | 1.46094 ± 0.0007 | 1282 ± 2
313.15 K, x1 = 0.6837 | 823.1 ± 0.5 | 1.45755 ± 0.0007 | 1291 ± 2
313.15 K, x1 = 0.7877 | 821.3 ± 0.5 | 1.45432 ± 0.0007 | 1301 ± 2
313.15 K, x1 = 0.8888 | 820 ± 0.5 | 1.45148 ± 0.0007 | 1312 ± 2
313.15 K, x1 = 0.9413 | 819.5 ± 0.5 | 1.4501 ± 0.0007 | 1318 ± 2
313.15 K, x1 = 1 | 819.2 ± 0.5 | 1.44877 ± 0.00061 | 1325 ± 2

Cc1cccc(C)c1 [1,3-dimethylbenzene] + C1CCCC1
x2 = 0
Conditions | mass density, [1] [kg/m3] | refractive index, [2] | speed of sound, [1] [m/s]
298.15 K | 859.8 ± 0.5 | 1.49466 ± 0.001 | 1321 ± 2
313.15 K | 846.9 ± 0.5 | 1.48653 ± 0.001 | 1259 ± 2
